Assay results reported in patent US7638145B2, “Cultivated agarwood” (Regents of the University of Minnesota, priority 2001, dated 2009).

How the values were obtained:
Type in all cases: in vivo
[1] = system: Aquilaria trees; test: Drill wounds treated with different compounds to stimulate agarwood production (Example 5); design: Area of discoloration: unit not given here; conditions: for effect on area of discoloration (in words): Example 5, at the concentrations tested; for Area of discoloration: approx 0.1-0.2 g per drill wound; for microscopic observations of cells around treated wounds: Example 5; for agarwood induction versus control wounds (in words): Example 5 conclusion
Method: To test if different types of compounds could stimulate agarwood production, ⅝ inch drill wounds were made approximately 5 cm into the main trunk of young plantation trees and different materials used to treat the drill wounds. Chemicals used were from Sigma Chemicals Inc. St. Louis, Mo. or Mallinckrodt Inc. Paris, Ky. One drill wound per tree received no treatment and others received one of the following treatments:
Chitosan—purified chitin approximately 0.2 g of chitin was added per wound
Formic acid—approximately 0.1 g of formic acid was added per wound
Sodium chloride—approximately 0.2 g added per wound
Cellobiose—approximately 0.2 grams added per wound
Lime—approximately 0.1 g calcium carbonate added per wound
Trees were harvested after 12, 18 and 21 months.

[2] = system: Aquilaria trees; test: Scribed drill wounds with Basidiomycota cultures or chemicals in sawdust, Kon Tum and Nui Cam (Example 9); conditions: for effect on area of discoloration and agarwood resin (in words): Example 9 conclusion, sodium bisulfite 1:4, salicylic acid 1:2, ferrous chloride 1:4 in sawdust; for Area of discoloration: after 15 months, mean of two trees, chemicals approx 0.5 g in sterile Aquilaria sawdust
Text: Young trees growing at two sites, in home gardens and on agricultural land (Kon Tum, Vietnam and Nui Cam, Vietnam), received 8 wounds per tree. Drill wounds ⅝ inch diameter were drilled approximately 5 cm into the main trunk of each tree in a spiral fashion separated by approximately 20 cm. All drill wounds were scribed to remove a 5×5 cm area of bark around the wound. Fungal treatments consisted of three different types of Basidiomycota obtained from Aquilaria trees in Vietnam. These isolates were not identified to genus but culture morphology indicated they were different genera. Cultures were grown on sterile rice supplemented with malt extract. Cultures were grown for three weeks before inoculation.
Treatments Included: • 1. Control wound receiving sterile rice • 2. Fungal culture 97-14-5 • 3. Fungal culture 97-13-7 • 4. Fungal culture 97-11-25 • 5. Control wound receiving 5 g sterile Aquilaria sawdust • 6. Approximately 0.5 g of a 1:4 ratio of sodium bisulfite and sterile Aquilaria sawdust • 7. Approximately 0.5 g of a 1:2 ratio of salicylic acid in sterile Aquilaria sawdust • 8. Approximately 0.5 g of a 1:4 ratio of ferrous chloride in sterile Aquilaria sawdust
After 15 months two trees were harvested from each location and brought to the laboratory for analyses. The mean area for each type of wound was calculated.

[3] = system: Aquilaria trees; test: Wound types and treatments on plantation trees, Phu Quoc Island, image analyzer area (Example 8); conditions: for effect on area of discoloration and agarwood resin (in words): Example 8 conclusion; for Area of discoloration/resin: after 15 months, longitudinal plane, mean of 8 wounds, approx 0.3 g of agent mixed with sterile Aquilaria sawdust, drill wound plus 5x5 cm bark removed
Text: Fourteen plantation grown trees on Phu Quoc Island were used to test different treatments. Each tree received 8 wounds that were spiraled up the main trunk of the tree separated by approximately 20 cm. A range of different types of wounds and treatments as well as controls were made on each tree. […] Trees were harvested after 15 months and taken to the laboratory for analyses.
Treatments Included: • 1. A surface wound approximately 5×5 cm was made by cutting the bark and removing the bark tissue to expose the xylem. No drill hole was made. • 3. A ⅝ inch drill wound was made approximately 5 cm into the xylem and a 5×5 cm section of the bark removed around the drill hole and approximately 0.3 g sterile Aquilaria sawdust added to the drill wound. • 4. Same as #3 but with approximately 0.3 g of a 1:1 ratio of ferrous chloride and sterile Aquilaria sawdust added to the drill wound. • 5. Same as #3 with approximately 0.3 g of a 1:2 ratio of NaCl and sterile Aquilaria sawdust added to the drill wound. • 6. Same as #3 but with approximately 0.3 g of a 1:4 ratio of Difco yeast extract and sterile Aquilaria sawdust. • 7. Same as #3 but with approximately 0.3 g of a 1:1 ratio of sodium bisulfite and sterile Aquilaria sawdust. • 8. Same as #3 but with approximately 0.3 g of a 1:2:4 ratio of Difco nutrient broth: Difco malt extract: sterile Aquilaria sawdust.
After 15 months, 8 trees were harvested and brought to the laboratory for analyses. The area of discoloration and resin formation was determined by splitting the tree through the wounded region and area affected measured using an image analyzer. Area (cm^2) was determined for all wounds in the longitudinal plane. Each value is a mean of 8 wounds.

| SMILES | effect on area of discoloration (in words) [1] | Area of discoloration ([1]; after 12 months) | Area of discoloration ([1]; after 18 months) | Area of discoloration ([1]; after 21 months) | microscopic observations of cells around treated wounds [1] | agarwood induction versus control wounds (in words) [1] | effect on area of discoloration and agarwood resin (in words) [2] | Area of discoloration ([2]; Location Kon Tum) | Area of discoloration ([2]; Location Nui Cam) | effect on area of discoloration and agarwood resin (in words) [3] | Area of discoloration/resin [3] |
| --- | --- | --- | --- | --- | --- | --- | --- | --- | --- | --- | --- |
| O=C[C@H](O)[C@@H](O)[C@H](O[C@@H]1O[C@H](CO)[C@@H](O)[C@H](O)[C@H]1O)[C@H](O)CO [Cellobiose] | do not increase the area of discoloration | 9.9 | 20.3 | 7.4 |  |  |  |  |  |  |  |
| O=CO [Formic acid] |  | 28.5 | 18.6 | 31.8 | react extensively and phloem cells are filled with resin | induce greater amounts of agarwood than the control wounds |  |  |  |  |  |
| O=C(O)c1ccccc1O [Salicylic acid, salicylic acid] |  |  |  |  |  |  | did not produce large areas of discoloration | 16.9 cm^2 | 25.5 cm^2 |  |  |
| O=S([O-])O.[Na+] [Sodium bisulfite, sodium bisulfite] |  |  |  |  |  |  | reduced amount of discoloration and agarwood resin | 52.3 cm^2 | 56.9 cm^2 | increase the area of discoloration within the tree and the amount of agarwood resin formed | 182.0 cm^2 |
| [Cl][Fe][Cl] [Ferrous chloride, ferrous chloride] |  |  |  |  |  |  | did not produce large areas of discoloration | 18.4 cm^2 | 23.3 cm^2 | increase the area of discoloration within the tree and the amount of agarwood resin formed | 112.5 cm^2 |
| O=C([O-])[O-].[Ca+2] [Lime, calcium carbonate] | do not increase the area of discoloration | 10.0 | 18.7 | 9.7 |  |  |  |  |  |  |  |
| [Cl-].[Na+] [NaCl, Sodium chloride] |  | 49.3 | 44.7 | 36.4 | react extensively and phloem cells are filled with resin | induce greater amounts of agarwood than the control wounds |  |  |  | increase the area of discoloration within the tree and the amount of agarwood resin formed | 48.1 cm^2 |
